Converted amounts (≈) assume the structure as drawn. Read-outs that look alike come from different tables or passages of the source. Starred links: 1 amine or outer side, 2 acyl side, 3 side chain; linkers in the order of their positions; H or OH if unused. Positions of bridges follow the written chain, without caps; N, C: chain ends. Non-standard residues stand in square brackets, D forms with d. Residues, ends and D or L forms follow the SMILES beside them. *: point of attachment. Trp(7-Me) = Cc1cccc2c(C[C@H](N)C(=O)O)c[nH]c12; X1 = O=C(CCCCN[*:3])N[C@@H](CS[*:2])C(=O)[*:1]; αMeLys(Me2) = CN(C)CCCC[C@](C)(N)C(=O)O; X2 = CN(C)[C@@H](CCCCN[*:1])C(=O)[*:2]; 2Nal = N[C@@H](Cc1ccc2ccccc2c1)C(=O)O; NMe5Ava = CN(CCCCC(=O)[*:2])[*:1]; 3Pal = N[C@@H](Cc1cccnc1)C(=O)O; αMeL = CC(C)C[C@](C)(N)C(=O)O; Me2NCH2CH2 = CN(C)CC*; Ava = NCCCCC(=O)O; Sar = CNCC(=O)O
Tests used:
[1] = test system: IL-23 induced STAT3 signaling in HEK-Blue™ IL-23 cells; experiment: IL-23 induced STAT3 signaling in HEK-Blue IL-23 cells (SEAP reporter); type: cell-based; conditions: human IL23 0.25 ng/ml, read-out: pSTAT3
Source text: HEK-Blue™ IL-23 cells (Invivogen) are designed for the detection of bioactive human (hIL-23) and murine IL-23 (mIL-23) by monitoring the activation of the STAT3 pathway. Binding of IL-23 to its receptor on the surface of HEK-Blue™ IL-23 cells triggers a signalling cascade leading to the activation of STAT3 and the subsequent production of secreted embryonic alkaline phosphatase (SEAP). This can be readily assessed using QUANTI-Blue™ Solution, a SEAP detection reagent.
HEK-Blue™ IL-23 cells were cultured as described by Invivogen.
On the first day of assay 10 μL of the HEK-Blue IL23 cell suspension (final concentration: 10,000 cells/well) and 10 μl of serially diluted peptides solutions were dispensed into a 384-well assay plate. After pre-incubation of the reaction mixtures at 37° C./5% CO2/95% humidity for 60 minutes, 10 μl of the human IL23 cytokine (final concentration: 0.25 ng/ml) was added to each well for the STAT3 signalling activation. The plate was incubated overnight at 37° C./5% CO2/95% humidity.
On the second day 20 μl per well of Quanti-Blue detection solution (prepared according to the manufacture instruction) was dispensed into a new 384-well plate and followed by the transfer of 5 μl supernatant of the overnight incubated cell/sample mixtures. After incubation of 45 min at room temperature signals were measured with PHERAstar (BMG) at OD 620-655 nm. Dose response data were fitted with XLfit.

Pepsin = test system: T1, Pepsin; experiment: Protease stability in simulated gastric fluid (Pepsin-SGF, FaSSGF); type: in vitro ADME; conditions: simulated gastric fluid with pepsin (Pepsin-SGF), 60 min, 1 μM peptide, 37° C., read-out: FaSSGF 60 (min), remaining percent of peptide
T1 construct: purchased Merck Millipore
Protocol: (§1) Studies were carried out in simulated intestinal fluid (SIF) and simulated gastric fluid (SGF) to evaluate gastric stability of the peptide compounds disclosed herein.
For clarification the term “Pepsin-SGF” refers to a solution of simulated gastric fluid containing pepsin whereas “SGF media” refers to a solution of simulated gastric fluid without pepsin. Pepsin-SGF was prepared by dissolving 320 mg Pepsin (Merck Millipore) in 100 mL SGF media concentrate (ProSense).
(§2) Peptides were first dissolved at 1 mM stock concentration in 0.01 HCl (+/−10% of DMSO) and were than diluted further with water to a stock concentration of 20 μM. Final peptide concentration in the incubation was 1 μM.
(§3) To 76 μL of the Pepsin-SGF buffer, 4 μL of the 20 μM peptide stock solution was added and incubated at 37° C. At each timepoint (0, 60, 120 and 240 minutes) the reaction was quenched with addition of 80 μL Ethanol (0.1% HCOOH). The samples were centrifuged for 20 minutes and an aliquot of the supernatant 100 μL were transferred to a LoBind-MTP plate and analyzed by LCMS/MS. The peak area response was calculated at each time point for each test compound. As internal reference, the peak area response of the same test compound at TO was calculated. The percent remaining at each timepoint was calculated based on the peak area response ratio of the test compound at TO. Time 0 was set to 100%, and all later timepoints were calculated relative to time 0.

Pancreatin = experiment: Protease stability in simulated intestinal fluid (Pancreatin-SIF, FaSSIF); type: in vitro ADME; conditions: 1 μM peptide, 37° C.; for remaining at 1 h, 1 µM: 60 min, read-out: FaSSIF 60 (min), remaining percent of peptide; for remaining at 2 h, 1 µM: 120 min, read-out: FaSSIF 120 (min), remaining percent of peptide; for remaining at 4 h, 1 µM: 240 min, read-out: FaSSIF 240 (min), remaining percent of peptide
Protocol: as §1
Similarly, the term “Pancreatin-SIF” refers to a solution of simulated intestinal fluid containing pancreatin whereas “SIF-media” refers to a solution of simulated intestinal fluid without pancreatin.
Pancreatin-SIF was prepared by dissolving 1 mg Pancreatin (MP Biomedicals) in 10 mL SIF media concentrate (ProSense).
as §2
as §3, with “µM” for “μM”

[2] = Solubility testing of peptides at different pH; type: physicochemical; conditions: target concentration 1 mg/ml, 2 hours agitation
Protocol: Prior to the solubility measurement of a synthesized peptide batch, its purity was determined through UPLC/MS (methods B-G).
For solubility testing the target concentration was 1 mg pure compound/ml. Therefore, solutions from solid samples were prepared in a buffer system at a concentration of 1 mg/mL compound. The solid samples were obtained by drying down aliquots of a dimethyl sulfoxide stock solution using a Thermo Speedvac vacuum centrifuge. The dry down time was 3 hours. • Solubility buffer system A) 50 mM HCl pH 1.2 • Solubility buffer system B) 50 mM phosphate buffer pH 6.5 • Solubility buffer system C) 50 mM phosphate buffer pH 7.4 • Solubility buffer system D) 50 mM phosphate buffer pH 9.0
UPLC-UV (Method A) was performed after 2 hours of gentle agitation from the filtered (0.45 μm filter plates) solutions, which was obtained by 10 mins of centrifugation forced filtration at 1500 RCF (relative centrifugal acceleration).
The solubility was determined by the comparison of the UV peak area of 2 μL-injections of a buffered sample diluted 1:5 with a standard curve of a dimethyl sulfoxide reference sample of the diluted in dimethyl sulfoxide with known concentration. The different extinction coefficients were taken into account for the calculation.

[3] = Chemical stability assessment of peptides (relative purity loss); type: physicochemical; conditions: 24 hours at 37° C.; for Chemical stability (relative purity loss) Buffer pH 1.2: 50 mM HCl pH 1.2 + acetonitrile (1:1); for Chemical stability (relative purity loss) Buffer pH 6.5: 50 mM phosphate buffer pH 6.5 + acetonitrile (1:1); for Chemical stability (relative purity loss) Buffer pH 7.4: 50 mM phosphate buffer pH 7.4 + acetonitrile (1:1)
Protocol: Purity of a peptide batch was determined through UPLC/MS (Methods B-G) prior to chemical stability measurement. The target concentration was 1 mg/ml pure compound. Solutions from solid samples were prepared in the following buffer systems with a concentration of 1 mg/ml compound based on the previously determined % purity: • Solubility buffer system A) 50 mM HCl pH 1.2+Acetonitrile (1:1) • Solubility buffer system B) 50 mM phosphate buffer pH 6.5+Acetonitrile (1:1) • Solubility buffer system C) 50 mM phosphate buffer pH 7.4+Acetonitrile (1:1)
Prepared solutions were stored for 24 hours at 2° C. and 37° C. After this time course, the samples were centrifuged for 15 min at 2500 RCF to create a 1:5 dilution of the supernatant. Then 2 μl of the dilution were analysed with UHPLC-UV.
The chemical stability was rated through the relative loss of purity calculated by the equation:
[(purity after 0 hours at 37° C.)−(purity after 24 hours at 37° C.)]/(purity after 0 hours at 37° C.)]*100%
The purity is calculated as [(peak area peptide)/(total peak area)]*100%.

[4] = molecular target: T2, human interleukin-23 receptor (recombinant human IL-23R-Fc chimera) (Homo sapiens, UniProt Q5VWK5); experiment: Human ELISA IL23/IL23R (assay for specific human IL23R antagonists); type: binding; conditions: Table 10; read-out: Human ELISA IL23/IL23R IC50
T2 construct: Fc (IgG Fc fusion)
Protocol: Antagonism of compounds for human interleukin-23 receptor antagonists, was determined by an ELISA assay.
A 384-well plate was coated with 50 μl/well of human IL23 at a final concentration of […] and incubated overnight at 4° C. The wells were washed 3 times with 80 μl wash buffer and blocked with 80 μl blocking buffer for 60 minutes at room temperature and washed again. 20 μl of serially diluted test peptides was added to each well and subsequently 20 μl of recombinant human IL-23R-Fc chimera at final concentration of 0.1 μg/ml. The plate was incubated for 60 minutes at room temperature. After the wells were washed, bound IL23R-Fc was detected with goat anti-hu-IgG1-HRP antibody. Signals were visualized with QuantaBlu Fluorogenic Peroxidase Substrate.

[5] = 50 mM HCl buffer, 50 mM HCl pH 1.2, read-out: Solubility Buffer pH 1.2
[6] = 50 mM phosphate buffer pH 6.5, read-out: Solubility Buffer pH 6.5
[7] = 50 mM phosphate buffer pH 7.4, read-out: Solubility Buffer pH 7.4
[8] = 50 mM phosphate buffer pH 9.0, read-out: Solubility Buffer pH 9.0

Row | SMILES | IC50 [1] [nM] | remaining at 1 h, 1 µM (Pepsin) [%] | remaining at 1 h, 1 µM (Pancreatin) [%] | remaining at 2 h, 1 µM (Pancreatin) [%] | remaining at 4 h, 1 µM (Pancreatin) [%] | solubility at 2 h [2, 5] [mg/mL] | solubility at 2 h [2, 6] [mg/mL] | solubility at 2 h [2, 7] [mg/mL] | Chemical stability (relative purity loss) Buffer pH 1.2 [3] [%] | Chemical stability (relative purity loss) Buffer pH 6.5 [3] [%] | Chemical stability (relative purity loss) Buffer pH 7.4 [3] [%] | solubility at 2 h [2, 8] [mg/mL] | IC50 [4] [nM]
1 | CC(=O)NCCCC[C@@H]1NC(=O)[C@H](Cc2c[nH]c3c(C)cccc23)NC(=O)[C@H]([C@@H](C)O)NC(=O)[C@H](CC(N)=O)NC(=O)[C@@H]2CSSC[C@H](NC1=O)C(=O)N[C@@H](Cc1ccc(OCCN(C)C)cc1)C(=O)N[C@@H](Cc1ccc3ccccc3c1)C(=O)N[C@@](C)(CC(C)C)C(=O)N[C@H](C(=O)N[C@@H](CC(N)=O)C(=O)N[C@@H](Cc1cccnc1)C(=O)N(C)CC(N)=O)CCC(=O)NCCCCC(=O)N2 [compound 65] ([Ava]CNT[Trp(7-Me)]K(Ac)CY(Me2NCH2CH2)[2Nal][αMeL]EN[3Pal][Sar]-NH2; disulfide 2-7; lactam N-11) | 0.23 | 86 | 96 | 96 | 92 | ≥ 0.98 | ≥ 0.91 | ≥ 0.96 |  |  |  |  | 
2 | CC(=O)NCCCC[C@@H]1NC(=O)[C@H](Cc2c[nH]c3c(C)cccc23)NC(=O)[C@@H](NC(C)=O)CCCCNC(=O)[C@@H]2CSSC[C@H](NC1=O)C(=O)N[C@@H](Cc1ccc(OCCN(C)C)cc1)C(=O)N[C@@H](Cc1ccc3ccccc3c1)C(=O)NC1(CCOCC1)C(=O)N[C@H](C(=O)N[C@@H](CC(N)=O)C(=O)N[C@@H](Cc1cccnc1)C(=O)N(C)CC(N)=O)CCCCN(C)CCCCN2C [compound 127] |  | 100 | 99 | 101 | 97 | ≥ 1.52 | ≥ 1.13 | ≥ 1.12 | 6.0 | 9.0 | 11.0 | 0.62 (≈ 333 µM) | 0.53
3 | CC(=O)NCCCC[C@@H]1NC(=O)[C@H](Cc2c[nH]c3c(C)cccc23)NC(=O)[C@H]([C@@H](C)O)NC(=O)[C@H](CC(N)=O)NC(=O)[C@@H]2CSSC[C@H](NC1=O)C(=O)N[C@@H](Cc1ccc(OCCN(C)C)cc1)C(=O)N[C@H](Cc1ccc3ccccc3c1)C(=O)NC1(CCOCC1)C(=O)N[C@H](C(=O)N[C@@H](CC(N)=O)C(=O)N[C@@H](Cc1cccnc1)C(=O)N(C)CC(N)=O)CCC(=O)NCCCCC(=O)N2 [compound 35] | 0.34 | 92 | 91 | 92 | 92 | ≥ 1.07 | ≥ 1.03 | ≥ 1.06 | 10.1 | 1.3 | 1.7 | ≥ 1.14 | 
4 | CC(=O)NCCCC[C@@H]1NC(=O)[C@H](Cc2c[nH]c3c(C)cccc23)NC(=O)[C@@H](N(C)C)CCCCNC(=O)[C@@H]2CSSC[C@H](NC1=O)C(=O)N[C@@H](Cc1ccc(OCCN(C)C)cc1)C(=O)N[C@@H](Cc1ccc3ccccc3c1)C(=O)N[C@@](C)(CCCCN(C)C)C(=O)N[C@H](C(=O)N[C@@H](CC(N)=O)C(=O)N[C@@H](Cc1cccnc1)C(=O)N(C)CC(N)=O)CCC(=O)N(C)CCCCC(=O)N2 [compound 61] ([NMe5Ava]C[X2][Trp(7-Me)]K(Ac)CY(Me2NCH2CH2)[2Nal][αMeLys(Me2)]EN[3Pal][Sar]-NH2; disulfide 2-6; lactam N-10) | 4.4 | 96 | 90 | 74 | 62 |  |  |  |  |  |  |  | 
5 | CC(=O)N[C@H]1CCCCNC(=O)[C@@H]2CSSC[C@H](NC(=O)[C@H](CCC(N)=O)NC(=O)[C@H](Cc3c[nH]c4ccccc34)NC1=O)C(=O)N[C@@H](Cc1ccc(OCCN(C)C)cc1)C(=O)N[C@@H](Cc1ccc3ccccc3c1)C(=O)N[C@@](C)(CC(C)C)C(=O)N[C@H](C(=O)N[C@@H](CC(N)=O)C(=O)N[C@@H](CC(N)=O)C(N)=O)CCC(=O)NCCCCC(=O)N2 [compound 28] (Ac-KWQCY(Me2NCH2CH2)[2Nal][αMeL]ENN-NH2; linker 1-4-8 via X1) | 4.11 | 83 | 80 | 68 | 65 |  |  |  |  |  |  |  | 

— US20260258084A1, “New Peptides as Selective IL-23 Receptor Antagonists” (Sanofi, priority 2022, published 2026)
